According to patent US11376253B2, “Agent for treating nocturnal pollakiuria” (KYORIN PHARMACEUTICAL CO., LTD., priority 2017, dated 2022):

How the values were obtained:
Japanese OAB patients [1] = experiment: twelve-week randomized, double-blind, placebo-controlled, parallel-group study of nocturnal pollakiuria in OAB patients; format: in vivo, human; conditions: for Difference in amount of change (vibegron group − placebo group), least squares mean (95% confidence interval) / Amount of change from baseline in the frequency of urination at night, least squares mean (95% confidence interval): 12 weeks
Description: The efficacy of vibegron on nocturnal pollakiuria in OAB patients was evaluated in a twelve-week randomized, double-blind, placebo-controlled, parallel-group study.
Japanese OAB patients received either vibegron (50 mg/day or 100 mg/day) or a placebo for 12 weeks. Both 50 mg/day of vibegron and 100 mg/day of vibegron were orally administered in the form of a tablet once daily after breakfast. […] There was no difference among the dose groups in terms of subject background such as gender, age, and BMI.
The therapeutic effect of vibegron on nocturnal pollakiuria in OAB patients was evaluated based on an average frequency of urination at night, which was determined by using a urination diary to investigate the frequency of urination for three days prior to visits. In this context, nighttime is defined as the period of time between when one goes to bed to sleep and when one wakes up and gets out of bed. Constrained longitudinal data analysis model (cLDA) was used for statistical analysis to estimate the least squares mean and the two-sided 95% confidence interval of each group. Furthermore, the cLDA method was used to estimate the least squares mean difference at evaluation times between the 50 mg or 100 mg vibegron groups and the placebo group and the two-sided 95% confidence intervals thereof, thereby testing the least squares mean difference compared with placebo.
Numerical values in Table 2 represent the average of the frequency of urination at night at baseline (before drug administration), the least squares mean of the amount of change from baseline in the average frequency of urination at night after 12 weeks of administration, the least squares mean of difference in the amount of change between the vibegron groups and the placebo group, and p-values. In this regard, when the amount of change is less than 0, the smaller value represents a greater therapeutic effect. […] “Patients whose frequency of urination at night is not zero at baseline” are represented as a main subject population, and other “patients whose frequency of urination at night is one or more times at baseline” and “patients whose frequency of urination at night is two or more times at baseline” are represented as populations who have more prominent symptoms of nocturnal pollakiuria. FIG. 1 is a graph in which the numerical values represent the least squares mean (ΔLSmean) of the amount of change from baseline in the frequency of urination at night after 12 weeks of administration.

Japanese OAB patients [2] = experiment: as above; format: in vivo, human; conditions: for Least squares mean of the amount of change from baseline in the first voided volume at night / Least squares mean of the amount of change from baseline in the time to first awakening (HUS) / Least squares mean of the amount of change from baseline in the single voided volume at night: patients with frequency of urination at night one or more times per day at baseline; for Least squares mean of the amount of change from baseline in the first voided volume at night: placebo 24.80 mL; for Least squares mean of the amount of change from baseline in the time to first awakening (HUS): placebo 65.08 minutes; for Least squares mean of the amount of change from baseline in the single voided volume at night: placebo +19.42 mL
[3] = 50 mg and 100 mg groups, patients with nocturnal pollakiuria with nocturnal polyuria, one or more times per day at baseline
[4] = 50 mg/day oral, patients whose frequency of urination at night is two or more times at baseline
[5] = 100 mg/day oral, patients whose frequency of urination at night is not zero at baseline
[6] = 50 mg and 100 mg groups, patients with nocturnal pollakiuria without nocturnal polyuria, one or more times per day at baseline

O=C(Nc1ccc(C[C@@H]2CC[C@H]([C@H](O)c3ccccc3)N2)cc1)[C@@H]1CCc2nccc(=O)n21 [Vibegron, (6S)—N-[4-({(2S,5R)-5-[(R)-hydroxy(phenyl)methyl]pyrrolidin-2-yl}methyl)phenyl]-4-oxo-4,6,7,8-tetrahydropyrrolo[1,2-a]pyrimidine-6-carboxamide]
Frequency of urination at night compared with the placebo group (Japanese OAB patients [1]; [3]): reduced in the 50 mg vibegron group and the 100 mg vibegron group compared with the placebo group but the difference was not significant
Difference in amount of change (vibegron group − placebo group), least squares mean (95% confidence interval) (Japanese OAB patients [1]; 50 mg/day oral, patients whose frequency of urination at night is not zero at baseline): −0.11 (−0.21, −0.02)
Difference in amount of change (vibegron group − placebo group), least squares mean (95% confidence interval) (Japanese OAB patients [1]; 50 mg/day oral, patients whose frequency of urination at night is one or more times at baseline): −0.16 (−0.28, −0.04)
Amount of change from baseline in the frequency of urination at night, least squares mean (95% confidence interval) (Japanese OAB patients [1]; [4]): −1.00 (−1.17, −0.83)
Difference in amount of change (vibegron group − placebo group), least squares mean (95% confidence interval) (Japanese OAB patients [1]; [4]): −0.15 (−0.38, 0.08)
Amount of change from baseline in the frequency of urination at night, least squares mean (95% confidence interval) (Japanese OAB patients [1]; [5]): −0.62 (−0.70, −0.55)
Difference in amount of change (vibegron group − placebo group), least squares mean (95% confidence interval) (Japanese OAB patients [1]; [5]): −0.16 (−0.25, −0.06)
Difference in amount of change (vibegron group − placebo group), least squares mean (95% confidence interval) (Japanese OAB patients [1]; 100 mg/day oral, patients whose frequency of urination at night is one or more times at baseline): −0.21 (−0.33, −0.09)
Amount of change from baseline in the frequency of urination at night, least squares mean (95% confidence interval) (Japanese OAB patients [1]; 100 mg/day oral, patients whose frequency of urination at night is two or more times at baseline): −1.16 (−1.34. −0.99)
Single voided volume at night compared with the placebo group (Japanese OAB patients [2]; [3]): significantly increased
Frequency of urination at night compared with the placebo group (Japanese OAB patients [2]; [6]): significantly reduced
Single voided volume at night compared with the placebo group (Japanese OAB patients [2]; [6]): significantly increased
Amount of change from baseline in the frequency of urination at night, least squares mean (95% confidence interval) (Japanese OAB patients [2]; 50 mg/day oral, 12 weeks, patients whose frequency of urination at night is not zero at baseline): −0.58 (−0.65, −0.51)
Amount of change from baseline in the frequency of urination at night, least squares mean (95% confidence interval) (Japanese OAB patients [2]; 50 mg/day oral, 12 weeks, patients whose frequency of urination at night is one or more times at baseline): −0.74 (−0.82, −0.65)
Least squares mean of the amount of change from baseline in the first voided volume at night (Japanese OAB patients [2]; 50 mg/day, 12 weeks): 48.71 mL
Least squares mean of the amount of change from baseline in the time to first awakening (HUS) (Japanese OAB patients [2]; 50 mg/day, 12 weeks): 81.79 min
Least squares mean of the amount of change from baseline in the single voided volume at night (Japanese OAB patients [2]; 50 mg/day, 12 weeks): +47.85 mL
Amount of change from baseline in the frequency of urination at night, least squares mean (95% confidence interval) (Japanese OAB patients [2]; 100 mg/day oral, 12 weeks, patients whose frequency of urination at night is one or more times at baseline): −0.78 (−0.87, −0.70)
Difference in amount of change (vibegron group − placebo group), least squares mean (95% confidence interval) (Japanese OAB patients [2]; 100 mg/day oral, 12 weeks, patients whose frequency of urination at night is two or more times at baseline): −0.31 (−0.55, −0.08)
Least squares mean of the amount of change from baseline in the first voided volume at night (Japanese OAB patients [2]; 100 mg/day, 12 weeks): 71.42 mL
Least squares mean of the amount of change from baseline in the time to first awakening (HUS) (Japanese OAB patients [2]; 100 mg/day, 12 weeks): 90.95 min
Least squares mean of the amount of change from baseline in the single voided volume at night (Japanese OAB patients [2]; 100 mg/day, 12 weeks): +58.14 mL
